Results on 22 compounds are retold here after patent US20240092779A1, “USP1 INHIBITORS AND USES THEREOF” (Zentaur Therapeutics USA Inc., priority 2022, published 2024).

The target of test [1] is T1, recombinant USP1/UAF1 enzyme complex (Homo sapiens, UniProt O94782).
T1 construct: purchased Biortus
Put plainly: Enzyme assay: deubiquitinase fluorometric assay with ubiquitin-Rhodamine substrate. It counts as biochemical. Particulars: USP1/UAF1, Ub-Rho110 substrate, 2 hours preincubation, 1 hour reaction. As to the method:
Enzymatic inhibitory potency of the compounds was assessed in a deubiquitinase fluorometric assay using ubiquitin-Rhodamine (Ub-Rho110, R&D Systems) as substrate and the recombinant USP1/UAF1 enzyme complex (Biortus). Assays were performed in a final volume of 12 μL using black 384-well plates (Corning #4514) containing 50 mM HEPES (pH 7.5, BioRoYee), 0.5 mM EDTA, 1 mM dithiothreitol, 0.1 mg/mL bovine serum albumin, 50 nM Ub-Rhol10, 0.004 nM USP1/UAF1, and series diluted compounds from 10 μM to 0.5 nM (10 dilution steps). Assay-ready plates containing 40 nL of Echo-dispensed compound in DMSO were reconstituted with 2 μL of ddH2O, then 5 μL of USP1/UAF1 enzyme mixture was added and preincubated at room temperature for 2 hours. Enzymatic reaction was initiated by the addition of […] substrate mixture and assay allowed to proceed for 1 hour at room temperature before quenching with 3 μL of 150 mM citric acid. Fluorescence signal was detected via TECAN SPARK with excitation at 485 nm and emission at 535 nm. Data analysis was done using GraphPad Prism8 and IC50 values were obtained by 4-parameter logistic curve fitting.
Certain compounds were tested in the assays.

A further test deals with HCC1806 Ub-PCNA (USP1). The test can be described thus: USP1 Western Blot Protocol (HCC1806 Ub-PCNA). Particulars: HCC1806 cells, 4 hours. It counts as cell-based. In short, it runs like this:
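HCC1806 cells seeded overnight, then treated 4 h at 37 °C with a 5-point, 4-fold dilution series (0.1% DMSO). Lysates immunoblotted for Ub-PCNA with fluorescent detection; inhibition expressed as % vehicle from Ub-PCNA upregulation, IC50 by four-parameter logistic fit.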
A general note: A western blot detects proteins with antibodies after separation by electrophoresis.

The next test deals with MDA-MB-436 cells. Put plainly: CTG Protocol (MDA-MB-436 GI50), antiproliferative activity. It counts as cell-based, human. Particulars: MDA-MB-436 cells (BRCA1 mutation), 7-day incubation, CellTiter-Glo. In short, it runs like this: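 BRCA1-mutant MDA-MB-436 cells were seeded at 1000 cells/well in DMEM, left overnight, then exposed to a 9-point, 3-fold compound series for 7 days at 37 °C, 5% CO2. Viability was read by CellTiter-Glo luminescence. % inhibition was plotted against concentration to derive GI50.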
On the technique in general: In ATP-based viability assays light output follows the ATP content of the culture.

T1 sequence (O94782 whole entry): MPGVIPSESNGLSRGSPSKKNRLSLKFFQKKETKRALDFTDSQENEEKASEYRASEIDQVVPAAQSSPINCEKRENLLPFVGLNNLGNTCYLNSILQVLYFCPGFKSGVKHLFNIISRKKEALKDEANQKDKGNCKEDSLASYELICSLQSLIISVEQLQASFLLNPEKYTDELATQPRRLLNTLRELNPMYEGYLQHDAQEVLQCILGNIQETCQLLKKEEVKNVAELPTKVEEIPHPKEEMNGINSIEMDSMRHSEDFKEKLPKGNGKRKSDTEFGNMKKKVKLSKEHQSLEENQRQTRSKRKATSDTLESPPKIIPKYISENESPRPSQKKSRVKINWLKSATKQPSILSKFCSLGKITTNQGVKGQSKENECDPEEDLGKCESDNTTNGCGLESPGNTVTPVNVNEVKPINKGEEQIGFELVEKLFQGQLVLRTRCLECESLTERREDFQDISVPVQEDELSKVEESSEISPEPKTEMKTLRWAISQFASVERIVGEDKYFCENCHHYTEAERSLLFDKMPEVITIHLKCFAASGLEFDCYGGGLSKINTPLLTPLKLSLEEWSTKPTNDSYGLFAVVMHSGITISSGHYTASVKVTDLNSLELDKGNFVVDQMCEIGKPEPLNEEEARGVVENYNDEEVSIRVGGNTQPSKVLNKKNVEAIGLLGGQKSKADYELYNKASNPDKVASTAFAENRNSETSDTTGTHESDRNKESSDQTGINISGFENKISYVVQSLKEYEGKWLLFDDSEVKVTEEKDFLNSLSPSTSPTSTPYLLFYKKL
T1 sequence (Q8TAF3 whole entry partner): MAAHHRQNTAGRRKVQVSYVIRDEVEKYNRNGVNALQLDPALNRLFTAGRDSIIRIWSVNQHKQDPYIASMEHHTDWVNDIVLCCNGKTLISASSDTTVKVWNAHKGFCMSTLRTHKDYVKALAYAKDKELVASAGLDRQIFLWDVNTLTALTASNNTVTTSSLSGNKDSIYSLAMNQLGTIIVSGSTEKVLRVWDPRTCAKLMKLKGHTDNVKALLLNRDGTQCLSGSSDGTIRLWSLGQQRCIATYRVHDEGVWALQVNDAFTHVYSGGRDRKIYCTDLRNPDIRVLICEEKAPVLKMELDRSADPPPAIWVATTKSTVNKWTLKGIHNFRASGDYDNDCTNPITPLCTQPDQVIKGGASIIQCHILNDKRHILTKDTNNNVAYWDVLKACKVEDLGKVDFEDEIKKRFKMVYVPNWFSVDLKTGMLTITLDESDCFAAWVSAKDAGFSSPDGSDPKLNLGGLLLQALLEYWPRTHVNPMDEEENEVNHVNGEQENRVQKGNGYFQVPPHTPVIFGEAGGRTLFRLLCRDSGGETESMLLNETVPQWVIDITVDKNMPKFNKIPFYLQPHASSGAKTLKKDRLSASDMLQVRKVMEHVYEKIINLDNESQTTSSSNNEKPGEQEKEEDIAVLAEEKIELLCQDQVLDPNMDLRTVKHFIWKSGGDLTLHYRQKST

Usually IC50 stands for the concentration that inhibits the measured activity by half. A word on the GI50: it is the concentration that inhibits growth by half. On to `COc1cccnc1-c1ccc(Cn2c(=O)ccc3cnc(-c4c(OC)ncnc4C4CC4)nc32)cc1` [Compound 66, 2-(4-cyclopropyl-6-methoxypyrimidin-5-yl)-8-{[4-(3-methoxypyridin-2-yl)phenyl]methyl}pyrido[2,3-d]pyrimidin-7-one], for which the IC50 (in test [1]; in the test on HCC1806 Ub-PCNA (USP1) (Homo sapiens)) was 10 to 100 nM in each case. This compound also registered a GI50 in the test with MDA-MB-436 cells (Homo sapiens, 168 h) of 10 to 100 nM.

Regarding `COc1cc(Cn2c(=O)ccc3cnc(-c4c(OC)ncnc4C4CC4)nc32)cc(F)c1-c1nc(C(F)(F)F)cn1C1CC1` [Compound 53, 8-({4-[1-cyclopropyl-4-(trifluoromethyl)imidazol-2-yl]-3-fluoro-5-methoxyphenyl}methyl)-2-(4-cyclopropyl-6-methoxypyrimidin-5-yl)pyrido[2,3-d]pyrimidin-7-one], the IC50 (in test [1]; with HCC1806 Ub-PCNA (USP1) (Homo sapiens)) was 10 to 100 nM each time. Besides, in the test with MDA-MB-436 cells (Homo sapiens, 168 h), the GI50 was less than 10 nM.

Turning to `COc1ncnc(C2CC2)c1-c1ncc2ccc(=O)n(Cc3ccc(-c4nc(C(F)(F)F)cn4C)cc3)c2c1F` [Compound I-50, 7-(4-cyclopropyl-6-methoxypyrimidin-5-yl)-8-fluoro-1-({4-[1-methyl-4-(trifluoromethyl)imidazol-2-yl]phenyl}methyl)-1,6-naphthyridin-2-one], the IC50 (in test [1]; in the test with HCC1806 Ub-PCNA (USP1) (Homo sapiens)) was 10 to 100 nM each time. Further, the GI50 with MDA-MB-436 cells (Homo sapiens, 168 h) is 10 to 100 nM.

For `CCn1cc(C(F)(F)F)nc1-c1ccc(Cn2c(=O)c(Br)cc3cnc(-c4c(OC)ncnc4C4CC4)nc32)cc1` [Compound I-38, 6-Bromo-2-(4-Cyclopropyl-6-Methoxypyrimidin-5-Yl)-8-({4-[1-Ethyl-4-(Trifluoromethyl)Imidazol-2-Yl]Phenyl}Methyl)Pyrido[2,3-d]Pyrimidin-7-One], the IC50 (in test [1]; with HCC1806 Ub-PCNA (USP1) (Homo sapiens)) was 10 to 100 nM throughout. Moreover, the GI50 in the test on MDA-MB-436 cells (Homo sapiens, 168 h) lay within 10 to 100 nM.

In the case of `COc1ncnc(C2CC2)c1-c1ncc2c(=O)n(C)c(=O)n(Cc3ccc(-c4nc(C(F)(F)F)cn4C(C)C)cc3)c2n1` [Compound I-26, 7-(4-cyclopropyl-6-methoxypyrimidin-5-yl)-1-({4-[1-isopropyl-4-(trifluoromethyl)imidazol-2-yl]phenyl}methyl)-3-methylpyrimido[4,5-d][1,3]diazine-2,4-dione], the results for the IC50 (in test [1]; with HCC1806 Ub-PCNA (USP1) (Homo sapiens)) were 10 to 100 nM and 100 to 1000 nM, respectively. This compound showed a GI50 in the test on MDA-MB-436 cells (Homo sapiens, 168 h) of 10 to 100 nM.

With `COc1ncnc(C2CC2)c1-c1ncc2cc(CN(C)C)c(=O)n(Cc3ccc(-c4nc(C(F)(F)F)cn4C)cc3)c2n1` [Compound 56], the IC50 was in the range of 10 to 100 nM in test [1] and 100 to 1000 nM in the test with HCC1806 Ub-PCNA (USP1). This compound also gave a GI50 in the test with MDA-MB-436 cells of 10 to 100 nM.

Take `CCn1cc(C(F)(F)F)nc1-c1ccc(Cn2c(=O)c(C(=O)N(C)C)cc3cnc(-c4c(OC)ncnc4C4CC4)nc32)cc1` [Compound I-39, 2-(4-cyclopropyl-6-methoxypyrimidin-5-yl)-8-({4-[1-ethyl-4-(trifluoromethyl)imidazo]-2-yl]phenylmethyl)-N,N-dimethyl-7-oxopyrido[2,3-d]pyrimidine-6-carb oxamide]: the IC50 in test [1] was 10 to 100 nM. Moreover, the GI50 in the test with MDA-MB-436 cells (Homo sapiens, 168 h) fell in the range of 10 to 100 nM.

Take `COc1ncnc(C2CC2)c1-c1ncc2cc(Br)c(=O)n(Cc3ccc(-c4nc(C(F)(F)F)cn4C)cc3)c2n1` [Compound I-40]: the IC50 in test [1] was 10 to 100 nM. This compound registered a concentration for 50% growth inhibition (GI50) in the test on MDA-MB-436 cells (Homo sapiens, 168 h) of 10 to 100 nM.

`COc1cc(Cn2c(=O)ccc3cnc(-c4c(OC)ncnc4C4CC4)nc32)cc(F)c1-c1nc(C(F)(F)F)cn1C` [Compound 73, 2-(4-Cyclopropyl-6-Methoxypyrimidin-5-Yl)-8-({3-Fluoro-5-Methoxy-4-[1-Methyl-4-(Trifluoromethyl)Imidazol-2-Yl]Phenyl}Methyl)Pyrido[2,3-d]Pyrimidin-7-One]: the IC50 (in test [1]; in the test with HCC1806 Ub-PCNA (USP1) (Homo sapiens)) was 10 to 100 nM throughout. Besides, the GI50 in the test on MDA-MB-436 cells (Homo sapiens, 168 h) was in the range of 10 to 100 nM.

For `COc1ncnc(C2CC2)c1-c1ncc2cc(C(F)F)c(=O)n(Cc3ccc(-c4nc(C(F)(F)F)cn4C)cc3)c2n1` [Compound 77], the IC50 (in test [1]; in the test with HCC1806 Ub-PCNA (USP1)) was 10 to 100 nM each time. The compound further came in with a GI50 in the test on MDA-MB-436 cells of 10 to 100 nM.

Consider `COc1ncnc(C2CC2)c1-c1ncc2ccc(=O)n(Cc3ccc(-c4nc(C)ccc4F)cc3)c2n1` [Compound I-35], for which the figures for the IC50 (in test [1]; with HCC1806 Ub-PCNA (USP1) (Homo sapiens)) were 100 to 1000 nM and 10 to 100 nM, respectively. Also, in the test on MDA-MB-436 cells (Homo sapiens, 168 h), the GI50 is 10 to 100 nM.

As for `CC(C)n1ncc(Cl)c1-c1ncc2ccc(=O)n(Cc3ccc(-c4nc(C(F)(F)F)cn4C)cc3)c2n1` [Compound I-44, 2-(4-Chloro-2-Isopropylpyrazol-3-Yl)-8-({4-[1-Methyl-4-(Trifluoromethyl)Imidazol-2-Yl]Phenyl}Methyl)Pyrido[2,3-d]Pyrimidin-7-One], the IC50 (in test [1]; in the test on HCC1806 Ub-PCNA (USP1) (Homo sapiens)) was 10 to 100 nM each time. This compound came in with a GI50 in the test on MDA-MB-436 cells (Homo sapiens, 168 h) of 10 to 100 nM.

With `CCn1cc(C(F)(F)F)nc1-c1ccc(Cn2c(=O)cnc3cnc(-c4c(OC)ncnc4C4CC4)nc32)cc1` [Compound I-28], the IC50 in test [1] is 10 to 100 nM; in the test on HCC1806 Ub-PCNA (USP1) (Homo sapiens) it was less than 10 nM. For the same compound, in the test with MDA-MB-436 cells (Homo sapiens, 168 h), the GI50 was less than 10 nM.

Take `CCn1cc(C(F)(F)F)nc1-c1ccc(Cn2c(=O)c(C(=O)N3CCN(C)CC3)cc3cnc(-c4c(OC)ncnc4C4CC4)nc32)cc1` [Compound I-30, 2-(4-Cyclopropyl-6-Methoxypyrimidin-5-Yl)-8-({4-[1-Ethyl-4-(Trifluoromethyl)Imidazol-2-Yl]Phenyl}Methyl)-6-(4-Methylpiperazine-1-Carbonyl)Pyrido[2,3-d]Pyrimidin-7-One]: the IC50 (in test [1]; with HCC1806 Ub-PCNA (USP1) (Homo sapiens)) was 10 to 100 nM in each case. In the test on MDA-MB-436 cells (Homo sapiens, 168 h), this compound yielded a GI50 of 10 to 100 nM.

Take `COc1ncnc(C2CC2)c1-c1ncc2cc(CN3CCN(C)CC3)c(=O)n(Cc3ccc(-c4nc(C(F)(F)F)cn4C)cc3)c2n1` [Compound 55, 2-(4-cyclopropyl-6-methoxypyrimidin-5-yl)-8-({4-[1-methyl-4-(trifluoromethyl)imidazo]-2-yl]phenylmethyl)-6-[(4-methylpiperazin-1-yl)methyl]pyrido[2,3-d]pyrimidin-7-one]: the IC50 (in test [1]; in the test on HCC1806 Ub-PCNA (USP1)) was 10 to 100 nM in each case. The compound also registered a GI50 in the test on MDA-MB-436 cells of 10 to 100 nM.

Consider `COc1ncnc(C2CC2)c1-c1ncc2ccc(=O)n(Cc3ccc(-c4nccc(C(F)(F)F)n4)cc3)c2n1` [Compound I-34], for which the IC50 in test [1] was 100 to 1000 nM; with HCC1806 Ub-PCNA (USP1) (Homo sapiens), greater than 1000 nM. Also, the GI50 in the test on MDA-MB-436 cells (Homo sapiens, 168 h) was greater than 1000 nM.

Regarding `COc1ncnc(C2CC2)c1-c1ncc2cc(C(C)(C)O)c(=O)n(Cc3ccc(-c4nc(C(F)(F)F)cn4C)cc3)c2n1` [Compound 70], the IC50 (in test [1]; with HCC1806 Ub-PCNA (USP1)) was 10 to 100 nM in each case. For the same compound, the GI50 in the test on MDA-MB-436 cells lay within 10 to 100 nM.

Take `COc1ncnc(C2CC2)c1-c1ncc2ccc(=O)n(Cc3ccc(-c4ncccc4C)cc3)c2n1` [Compound 74, 2-(4-cyclopropyl-6-methoxypyrimidin-5-yl)-8-{[4-(3-methylpyridin-2-yl)phenyl]methyl}pyrido[2,3-d]pyrimidin-7-one]: the IC50 (in test [1]; with HCC1806 Ub-PCNA (USP1) (Homo sapiens)) was 10 to 100 nM each time. The same compound gave a GI50 in the test on MDA-MB-436 cells (Homo sapiens, 168 h) of 10 to 100 nM.

`COc1ncnc(C2CC2)c1-c1ncc2ccc(=O)n(Cc3ccc(-c4ncccc4N4CCN(C)CC4)cc3)c2n1` [Compound 85, 2-(4-cyclopropyl-6-methoxypyrimidin-5-yl)-8-({4-[3-(4-methylpiperazin-1-yl)pyridin-2-yl]phenyl}methyl)pyrido[2,3-d]pyrimidin-7-one]: the IC50 in test [1] lay within 10 to 100 nM; with HCC1806 Ub-PCNA (USP1) (Homo sapiens), 100 to 1000 nM. For the same compound, the GI50 in the test with MDA-MB-436 cells (Homo sapiens, 168 h) lay in the range of 10 to 100 nM.

Regarding `COc1ncnc(C2CC2)c1-c1ncc2ccc(=O)n(Cc3ccc(-c4nc(C(F)(F)F)cn4C4COC4)cc3)c2n1` [Compound 59, 2-(4-cyclopropyl-6-methoxypyrimidin-5-yl)-8-({4-[1-(oxetan-3-yl)-4-(trifluoromethyl)imidazol-2-yl]phenyl}methyl)pyrido[2,3-d]pyrimidin-7-one], the IC50 (in test [1]; in the test on HCC1806 Ub-PCNA (USP1) (Homo sapiens)) was 10 to 100 nM in each case. This compound also displayed a GI50 in the test on MDA-MB-436 cells (Homo sapiens, 168 h) of 10 to 100 nM.

For `COc1ncnc(C2CC2)c1-c1ncc2ccc(=O)n(Cc3ccc(-c4cccc(C(F)(F)F)c4)cc3)c2n1` [Compound I-42], the IC50 (in test [1]; in the test on HCC1806 Ub-PCNA (USP1) (Homo sapiens)) was 100 to 1000 nM each time. The compound also had a GI50 with MDA-MB-436 cells (Homo sapiens, 168 h) of 100 to 1000 nM.

On to `COc1ncnc(C2CC2)c1-c1ncc2ccc(=O)n(Cc3ccc(-c4nc(C(F)(F)F)cn4CCO)cc3)c2n1` [Compound 60, 2-(4-cyclopropyl-6-methoxypyrimidin-5-yl)-8-({4-[1-(2-hydroxyethyl)-4-(trifluoromethyl)imidazol-2-yl]phenyl}methyl)pyrido[2,3-d]pyrimidin-7-one], for which the IC50 (in test [1]; in the test on HCC1806 Ub-PCNA (USP1) (Homo sapiens)) was 10 to 100 nM in each case.
